Measured values published in doi:10.1101/2024.08.19.608619, “Discovery of potent SARS-CoV-2 nsp3 macrodomain inhibitors uncovers lack of translation to cellular antiviral response” (bioRxiv, 2024).
Like-named read-outs stand apart in the source and are kept apart here.

Legend:
[1] = In vitro mouse hepatocyte stability; assay type: in vitro ADME
Source text: Supplement media-1.zip/Hepatocyte_Stability.csv, table | column: clint; t_half

Protein binding = assay type: in vitro ADME
Source text: Supplement media-1.zip/Protein_Binding.csv, table | column: fu; perc_bound; perc_free; perc_recovered

A2A (h) = molecular target: T1, A2A (h) (Homo sapiens, UniProt P29274); assay: In vitro CEREP profiling, A2A (h) (agonist radioligand); assay type: binding; conditions: test compound 10 uM
T1 construct: purchased Eurofins Cerep (SafetyScreen44), recognised from the panel format
Source text: (§1) Supplement media-1.zip/Safety_Panel_Profile.csv, table | column: perc_inhibition

H1 (h) = molecular target: T2, H1 (h) (Homo sapiens, UniProt P35367); assay: In vitro CEREP profiling, H1 (h) (antagonist radioligand); assay type: binding; conditions: test compound concentration 10 uM
T2 construct: purchased Eurofins Cerep (SafetyScreen44), recognised from the panel format
Source text: as §1

GR (h) = molecular target: T3, GR (h) (Homo sapiens, UniProt P04150); assay: In vitro CEREP profiling, GR (h) (agonist radioligand); assay type: binding; conditions: test compound concentration 10 uM
T3 construct: purchased Eurofins Cerep (SafetyScreen44), recognised from the panel format
T3 sequence (P04150 1-777): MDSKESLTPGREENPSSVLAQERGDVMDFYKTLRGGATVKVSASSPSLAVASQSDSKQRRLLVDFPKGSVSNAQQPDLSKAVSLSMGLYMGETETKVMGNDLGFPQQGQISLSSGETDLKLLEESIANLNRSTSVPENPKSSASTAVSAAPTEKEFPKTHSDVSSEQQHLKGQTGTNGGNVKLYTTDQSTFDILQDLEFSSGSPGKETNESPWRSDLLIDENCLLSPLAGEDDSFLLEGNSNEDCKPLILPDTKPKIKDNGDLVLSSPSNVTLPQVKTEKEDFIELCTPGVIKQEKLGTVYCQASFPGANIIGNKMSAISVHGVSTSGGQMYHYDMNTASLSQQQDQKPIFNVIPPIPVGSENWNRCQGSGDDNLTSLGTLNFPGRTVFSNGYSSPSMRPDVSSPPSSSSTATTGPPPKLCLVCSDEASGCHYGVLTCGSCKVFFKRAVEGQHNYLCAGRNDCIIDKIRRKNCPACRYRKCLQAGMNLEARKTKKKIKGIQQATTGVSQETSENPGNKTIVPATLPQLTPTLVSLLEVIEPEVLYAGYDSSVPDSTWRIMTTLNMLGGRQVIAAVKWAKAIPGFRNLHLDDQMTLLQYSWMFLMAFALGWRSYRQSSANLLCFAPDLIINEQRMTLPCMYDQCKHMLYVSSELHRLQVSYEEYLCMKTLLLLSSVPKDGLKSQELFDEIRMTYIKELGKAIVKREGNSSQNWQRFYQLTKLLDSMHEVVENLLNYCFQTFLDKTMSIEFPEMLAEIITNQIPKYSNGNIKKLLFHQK
Source text: as §1

BZD (central) = assay: In vitro CEREP profiling, BZD (central) (agonist radioligand); assay type: binding; conditions: test compound 10 uM
Source text: as §1

Lck kinase (h) = molecular target: T4, Lck kinase (h) (Homo sapiens, UniProt P06239); assay: In vitro CEREP profiling, Lck kinase (h); assay type: biochemical; conditions: test compound concentration 10 uM; Enzyme and Cell-based assays
T4 construct: purchased Eurofins Cerep (SafetyScreen44), recognised from the panel format
Source text: as §1

CB2 (h) = molecular target: T5, CB2 (h) (Homo sapiens, UniProt P34972); assay: In vitro CEREP profiling, CB2 (h) (agonist radioligand); assay type: binding; conditions: test compound 10 uM
T5 construct: purchased Eurofins Cerep (SafetyScreen44), recognised from the panel format
Source text: as §1

acetylcholinesterase (h) = molecular target: T6, acetylcholinesterase (h) (Homo sapiens, UniProt P22303); assay: In vitro CEREP profiling, acetylcholinesterase (h); assay type: biochemical; conditions: test compound concentration 10 uM; Enzyme and Cell-based assays
T6 construct: purchased Eurofins Cerep (SafetyScreen44), recognised from the panel format
Source text: as §1

CB1 (h) = molecular target: T7, CB1 (h) (Homo sapiens, UniProt P21554); assay: In vitro CEREP profiling, CB1 (h) (agonist radioligand); assay type: binding; conditions: test compound 10 uM
T7 construct: purchased Eurofins Cerep (SafetyScreen44), recognised from the panel format
Source text: as §1

D1 (h) = molecular target: T8, D1 (h) (Homo sapiens, UniProt P21728); assay: In vitro CEREP profiling, D1 (h) (antagonist radioligand); assay type: binding; conditions: test compound 10 uM
T8 construct: purchased Eurofins Cerep (SafetyScreen44), recognised from the panel format
Source text: as §1

NaV1.5 = NaV1.5 (Homo sapiens, UniProt Q14524); assay: In vitro NaV1.5 cardiotoxicity; conditions: top test concentration 30 uM
Source text: Supplement media-1.zip/Cardiotoxicity.csv, table | column: ic50_rest_state; ic50_use_dep_block; perc_inhibition_rest_state; perc_inhibition_use_dep_block

CaMKI(h) = molecular target: T9, CaMKI(h) (Homo sapiens, UniProt Q14012); assay: biochemical; parameters: In vitro kinase panel profiling, per cent remaining kinase activity at 10 uM; conditions: atp_concentration=200, read-out: % of control remaining
T9 construct: gene CAMK1
Source text: (§2) We derisk potential for off-target activity by profiling the compound in a CEREP panel, a standard secondary pharmacology assessment, as well as a kinase panel to derisk a potential hinge-binding motif in our leads, and a PARP panel to derisk activity against human […]. Reassuringly, the compounds are selective, with the only off-targets being moderate human CHRM2 and KOR receptors activity associated with ASAP-0011198.

c-RAF(h) = molecular target: T10, c-RAF(h) (Homo sapiens, UniProt P04049); assay: biochemical; parameters: In vitro kinase panel profiling, per cent remaining kinase activity at 10 uM; conditions: atp_concentration=120, read-out: % of control remaining
T10 construct: gene RAF1
Source text: as §2

[2] = In vitro dog plasma protein binding
[3] = In vitro fetal calf serum protein binding
[4] = In vitro human plasma protein binding
[5] = In vitro mouse plasma protein binding
[6] = In vitro rat plasma protein binding
[7] = NaV1.5, rest state, read-out: ic50_rest_state
[8] = NaV1.5, use dependent block, read-out: ic50_use_dep_block

Chain of NaV1.5 (Q14524 whole entry): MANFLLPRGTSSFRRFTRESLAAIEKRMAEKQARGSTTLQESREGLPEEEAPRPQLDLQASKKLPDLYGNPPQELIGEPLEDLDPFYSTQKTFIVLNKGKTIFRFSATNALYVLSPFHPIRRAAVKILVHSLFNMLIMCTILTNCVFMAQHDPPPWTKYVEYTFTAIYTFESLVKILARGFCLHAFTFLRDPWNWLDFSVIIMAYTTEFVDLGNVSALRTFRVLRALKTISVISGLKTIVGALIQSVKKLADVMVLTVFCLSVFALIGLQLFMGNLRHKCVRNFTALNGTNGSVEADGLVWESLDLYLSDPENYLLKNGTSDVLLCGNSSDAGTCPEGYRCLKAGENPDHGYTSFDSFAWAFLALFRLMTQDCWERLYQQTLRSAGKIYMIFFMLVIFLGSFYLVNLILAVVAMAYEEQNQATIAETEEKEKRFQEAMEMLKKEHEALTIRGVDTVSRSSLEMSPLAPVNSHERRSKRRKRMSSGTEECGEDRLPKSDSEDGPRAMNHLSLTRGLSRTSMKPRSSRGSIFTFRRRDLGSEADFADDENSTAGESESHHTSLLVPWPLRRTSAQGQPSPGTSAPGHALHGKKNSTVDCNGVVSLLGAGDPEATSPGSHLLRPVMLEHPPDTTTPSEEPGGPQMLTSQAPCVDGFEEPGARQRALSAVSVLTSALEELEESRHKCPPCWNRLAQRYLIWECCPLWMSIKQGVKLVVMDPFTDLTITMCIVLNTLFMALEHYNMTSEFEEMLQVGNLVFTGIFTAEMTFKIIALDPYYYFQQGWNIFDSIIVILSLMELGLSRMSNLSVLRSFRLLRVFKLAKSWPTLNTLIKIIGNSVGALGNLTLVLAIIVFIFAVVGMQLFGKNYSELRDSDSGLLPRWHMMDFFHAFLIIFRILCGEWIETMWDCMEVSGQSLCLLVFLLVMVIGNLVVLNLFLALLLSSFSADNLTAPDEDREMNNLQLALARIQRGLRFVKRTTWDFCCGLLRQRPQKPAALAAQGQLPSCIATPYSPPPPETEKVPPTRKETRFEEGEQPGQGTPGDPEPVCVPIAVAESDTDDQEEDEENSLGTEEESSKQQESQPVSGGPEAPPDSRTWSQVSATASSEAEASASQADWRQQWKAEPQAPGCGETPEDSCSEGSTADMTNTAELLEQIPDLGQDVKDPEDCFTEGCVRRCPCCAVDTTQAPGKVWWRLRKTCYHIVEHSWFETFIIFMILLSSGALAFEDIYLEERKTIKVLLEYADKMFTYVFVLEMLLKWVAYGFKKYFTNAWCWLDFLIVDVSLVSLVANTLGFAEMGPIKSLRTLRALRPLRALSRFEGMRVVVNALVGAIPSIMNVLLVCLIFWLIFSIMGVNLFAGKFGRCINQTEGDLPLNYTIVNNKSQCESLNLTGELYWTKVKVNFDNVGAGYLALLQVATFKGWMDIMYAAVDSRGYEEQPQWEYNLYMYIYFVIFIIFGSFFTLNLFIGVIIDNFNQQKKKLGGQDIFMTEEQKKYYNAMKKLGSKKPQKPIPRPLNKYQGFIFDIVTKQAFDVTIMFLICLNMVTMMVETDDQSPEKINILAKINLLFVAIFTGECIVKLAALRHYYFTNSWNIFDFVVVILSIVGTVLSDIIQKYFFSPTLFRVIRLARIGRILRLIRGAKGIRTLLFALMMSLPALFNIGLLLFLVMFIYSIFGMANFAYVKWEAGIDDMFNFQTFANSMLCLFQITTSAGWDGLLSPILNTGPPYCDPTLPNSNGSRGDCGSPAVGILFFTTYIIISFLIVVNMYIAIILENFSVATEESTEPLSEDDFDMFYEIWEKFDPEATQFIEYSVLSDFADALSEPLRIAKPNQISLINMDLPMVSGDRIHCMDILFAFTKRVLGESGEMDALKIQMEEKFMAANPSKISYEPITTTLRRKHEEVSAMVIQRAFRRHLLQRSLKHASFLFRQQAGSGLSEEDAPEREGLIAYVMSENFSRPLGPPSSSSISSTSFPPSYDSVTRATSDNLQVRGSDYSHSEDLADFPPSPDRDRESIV
T9 sequence (Q14012 whole entry): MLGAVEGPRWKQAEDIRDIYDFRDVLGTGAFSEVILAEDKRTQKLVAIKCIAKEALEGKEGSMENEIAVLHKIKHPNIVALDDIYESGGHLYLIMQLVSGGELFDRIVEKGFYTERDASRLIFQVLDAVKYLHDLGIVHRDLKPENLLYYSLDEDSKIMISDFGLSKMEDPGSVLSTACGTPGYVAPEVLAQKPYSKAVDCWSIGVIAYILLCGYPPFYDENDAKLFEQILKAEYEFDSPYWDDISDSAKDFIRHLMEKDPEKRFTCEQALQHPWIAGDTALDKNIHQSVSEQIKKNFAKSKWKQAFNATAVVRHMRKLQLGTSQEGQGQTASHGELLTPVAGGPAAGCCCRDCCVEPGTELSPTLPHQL
T6 sequence (P22303 32-614): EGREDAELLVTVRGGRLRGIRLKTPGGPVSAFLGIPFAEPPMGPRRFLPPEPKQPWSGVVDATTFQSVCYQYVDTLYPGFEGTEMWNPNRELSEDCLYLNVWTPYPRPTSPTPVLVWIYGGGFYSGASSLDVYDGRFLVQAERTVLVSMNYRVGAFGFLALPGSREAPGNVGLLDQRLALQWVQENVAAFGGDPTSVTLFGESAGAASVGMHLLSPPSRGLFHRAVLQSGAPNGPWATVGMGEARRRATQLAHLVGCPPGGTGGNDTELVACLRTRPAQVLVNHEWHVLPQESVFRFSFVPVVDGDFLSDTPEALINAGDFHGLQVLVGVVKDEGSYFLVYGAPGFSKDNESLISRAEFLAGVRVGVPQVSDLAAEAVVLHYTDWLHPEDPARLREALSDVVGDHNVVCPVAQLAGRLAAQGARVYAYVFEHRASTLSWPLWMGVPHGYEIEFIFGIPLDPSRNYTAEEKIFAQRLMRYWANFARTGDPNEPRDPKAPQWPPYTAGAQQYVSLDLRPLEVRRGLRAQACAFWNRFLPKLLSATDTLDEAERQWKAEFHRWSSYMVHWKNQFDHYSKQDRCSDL
T7 sequence (P21554 whole entry): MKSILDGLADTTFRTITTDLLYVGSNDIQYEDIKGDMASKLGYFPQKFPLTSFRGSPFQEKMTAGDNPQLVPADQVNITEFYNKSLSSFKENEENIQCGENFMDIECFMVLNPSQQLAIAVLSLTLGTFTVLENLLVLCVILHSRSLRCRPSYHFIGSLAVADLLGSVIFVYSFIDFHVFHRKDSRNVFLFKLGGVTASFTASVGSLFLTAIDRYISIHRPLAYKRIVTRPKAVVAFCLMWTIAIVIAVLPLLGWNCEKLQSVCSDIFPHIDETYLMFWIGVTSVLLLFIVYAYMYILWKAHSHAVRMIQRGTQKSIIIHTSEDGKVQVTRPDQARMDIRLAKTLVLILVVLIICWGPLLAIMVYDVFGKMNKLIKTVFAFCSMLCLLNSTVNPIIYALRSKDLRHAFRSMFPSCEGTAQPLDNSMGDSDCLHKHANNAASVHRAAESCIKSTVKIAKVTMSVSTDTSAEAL
T2 sequence (P35367 whole entry): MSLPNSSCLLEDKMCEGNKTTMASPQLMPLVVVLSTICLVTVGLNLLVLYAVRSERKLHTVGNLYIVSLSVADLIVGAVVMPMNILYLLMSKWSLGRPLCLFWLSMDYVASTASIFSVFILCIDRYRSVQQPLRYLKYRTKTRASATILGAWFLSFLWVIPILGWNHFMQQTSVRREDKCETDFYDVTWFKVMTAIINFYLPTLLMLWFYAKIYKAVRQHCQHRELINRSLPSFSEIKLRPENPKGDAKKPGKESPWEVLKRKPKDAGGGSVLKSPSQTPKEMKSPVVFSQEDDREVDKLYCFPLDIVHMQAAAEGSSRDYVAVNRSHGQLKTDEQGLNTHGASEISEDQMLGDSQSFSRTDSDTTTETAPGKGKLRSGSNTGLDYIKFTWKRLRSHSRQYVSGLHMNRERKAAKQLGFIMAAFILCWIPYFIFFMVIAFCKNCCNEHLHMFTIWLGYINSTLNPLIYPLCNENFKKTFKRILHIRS
T10 sequence (P04049 whole entry): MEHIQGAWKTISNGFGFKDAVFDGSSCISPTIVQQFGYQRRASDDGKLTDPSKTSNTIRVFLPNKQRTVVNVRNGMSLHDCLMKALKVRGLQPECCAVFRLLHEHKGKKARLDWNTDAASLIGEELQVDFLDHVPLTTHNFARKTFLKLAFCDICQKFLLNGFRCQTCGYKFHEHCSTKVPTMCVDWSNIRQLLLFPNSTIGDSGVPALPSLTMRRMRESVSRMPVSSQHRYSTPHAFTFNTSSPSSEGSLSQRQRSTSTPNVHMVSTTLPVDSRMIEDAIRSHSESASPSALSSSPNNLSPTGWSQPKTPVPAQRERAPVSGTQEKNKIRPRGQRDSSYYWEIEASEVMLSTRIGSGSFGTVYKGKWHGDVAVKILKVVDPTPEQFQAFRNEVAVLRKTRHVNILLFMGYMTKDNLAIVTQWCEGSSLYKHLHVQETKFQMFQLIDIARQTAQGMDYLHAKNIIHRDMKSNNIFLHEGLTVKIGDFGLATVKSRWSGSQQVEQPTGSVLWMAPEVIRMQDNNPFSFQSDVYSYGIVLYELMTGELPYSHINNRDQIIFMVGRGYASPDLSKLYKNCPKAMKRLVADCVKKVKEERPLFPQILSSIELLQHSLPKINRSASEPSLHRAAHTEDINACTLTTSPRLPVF
T1 sequence (P29274 whole entry): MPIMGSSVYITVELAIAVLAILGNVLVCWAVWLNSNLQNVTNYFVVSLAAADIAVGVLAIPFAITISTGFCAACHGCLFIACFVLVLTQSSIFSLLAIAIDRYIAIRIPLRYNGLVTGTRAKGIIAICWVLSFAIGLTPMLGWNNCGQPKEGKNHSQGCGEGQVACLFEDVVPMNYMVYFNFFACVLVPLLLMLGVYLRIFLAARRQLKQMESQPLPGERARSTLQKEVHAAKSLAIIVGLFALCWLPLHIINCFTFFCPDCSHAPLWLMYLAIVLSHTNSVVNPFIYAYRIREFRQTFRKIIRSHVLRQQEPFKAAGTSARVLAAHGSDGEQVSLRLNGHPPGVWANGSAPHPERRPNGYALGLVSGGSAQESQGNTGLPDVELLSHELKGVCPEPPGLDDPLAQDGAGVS

Q: With `C[C@H](C(=O)O)[C@@H](NC(=O)c1ncnc2[nH]ccc12)c1ccc(Br)cc1` [ASAP-0014722] as the molecule, how does the clint [1] read?
A: 4.35 uL/min/1E6 cells

Q: What about the t_half [1] of the same molecule?
A: 159.0 min

Q: And the fu (Protein binding; [2])?
A: 0.039

Q: What about the perc_bound (Protein binding; [2]) of the same molecule?
A: 96.1%

Q: What about the perc_free (Protein binding; [2]) of the same molecule?
A: 3.94%

Q: What about the perc_recovered (Protein binding; [2]) of the same molecule?
A: 103.6%

Q: And the fu (Protein binding; [3])?
A: 0.043

Q: What about the perc_bound (Protein binding; [3]) of the same molecule?
A: 95.7%

Q: What about the perc_free (Protein binding; [3]) of the same molecule?
A: 4.3%

Q: What about the perc_recovered (Protein binding; [3]) of the same molecule?
A: 106.3%

Q: What about the fu (Protein binding; [4]) of the same molecule?
A: 0.026

Q: What about the perc_bound (Protein binding; [4]) of the same molecule?
A: 97.4%

Q: And the perc_free (Protein binding; [4])?
A: 2.6%

Q: What about the perc_recovered (Protein binding; [4]) of the same molecule?
A: 99.4%

Q: And the fu (Protein binding; [5])?
A: 0.111

Q: And the perc_bound (Protein binding; [5])?
A: 88.9%

Q: What about the perc_free (Protein binding; [5]) of the same molecule?
A: 11.1%

Q: What about the perc_recovered (Protein binding; [5]) of the same molecule?
A: 94.29%

Q: What about the fu (Protein binding; [6]) of the same molecule?
A: 0.044

Q: What about the perc_bound (Protein binding; [6]) of the same molecule?
A: 95.6%

Q: What about the perc_free (Protein binding; [6]) of the same molecule?
A: 4.41%

Q: And the perc_recovered (Protein binding; [6])?
A: 93.34%

Q: What about the “perc_inhibition (% inhibition of the binding of a ligand specific for each target)” value (A2A (h)) of the same molecule?
A: -14%

Q: And the “perc_inhibition (% inhibition of the binding of a ligand specific for each target)” value (H1 (h))?
A: -8%

Q: What about the “perc_inhibition (% inhibition of the binding of a ligand specific for each target)” value (GR (h)) of the same molecule?
A: 3%

Q: What about the “perc_inhibition (% inhibition of the binding of a ligand specific for each target)” value (BZD (central)) of the same molecule?
A: -4%

Q: And the “perc_inhibition: % inhibition of control enzyme activity, Lck kinase (h)” value (Lck kinase (h))?
A: 4%

Q: And the “perc_inhibition (% inhibition of the binding of a ligand specific for each target)” value (CB2 (h))?
A: -5%

Q: And the “perc_inhibition: % inhibition of control enzyme activity, acetylcholinesterase (h)” value (acetylcholinesterase (h))?
A: 12%

Q: And the “perc_inhibition (% inhibition of the binding of a ligand specific for each target)” value (CB1 (h))?
A: -11%

Q: What about the “perc_inhibition (% inhibition of the binding of a ligand specific for each target)” value (D1 (h)) of the same molecule?
A: -8%

Q: What about the perc_inhibition_rest_state (NaV1.5; NaV1.5, rest state) of the same molecule?
A: 18.0%

Q: And the IC50 (NaV1.5; [7])?
A: > 30 µM

Q: What about the perc_inhibition_use_dep_block (NaV1.5; NaV1.5, use dependent block) of the same molecule?
A: 16.0%

Q: What about the IC50 (NaV1.5; [8]) of the same molecule?
A: > 30 µM

Q: And the remaining activity at 10 µM (CaMKI(h); batch_name=ASAP-0014722-002)?
A: 101%

Q: What about the remaining activity at 10 µM (c-RAF(h); batch_name=ASAP-0014722-002) of the same molecule?
A: 108%

Q: Which results are given for `COc1ccc([C@H](Cc2nnn[nH]2)NC(=O)c2ncnc3[nH]ccc23)cc1` [ASAP-0015381]?
A: clint [1]: 4.6 uL/min/1E6 cells; t_half [1]: 151.0 min; fu (Protein binding; [2]): 0.106; perc_bound (Protein binding; [2]): 89.4%; perc_free (Protein binding; [2]): 10.6%; perc_recovered (Protein binding; [2]): 90.64%; fu (Protein binding; [3]): 0.061; perc_bound (Protein binding; [3]): 93.9%; perc_free (Protein binding; [3]): 6.07%; perc_recovered (Protein binding; [3]): 101.6%; fu (Protein binding; [4]): 0.01; perc_bound (Protein binding; [4]): 99.0%; perc_free (Protein binding; [4]): 1.01%; perc_recovered (Protein binding; [4]): 102.0%; fu (Protein binding; [5]): 0.306; perc_bound (Protein binding; [5]): 69.4%; perc_free (Protein binding; [5]): 30.6%; perc_recovered (Protein binding; [5]): 84.29%; fu (Protein binding; [6]): 0.047; perc_bound (Protein binding; [6]): 95.3%; perc_free (Protein binding; [6]): 4.69%; perc_recovered (Protein binding; [6]): 100.2%; perc_inhibition (% inhibition of the binding of a ligand specific for each target) (A2A (h)): -13%; perc_inhibition (% inhibition of the binding of a ligand specific for each target) (H1 (h)): -4%; perc_inhibition (% inhibition of the binding of a ligand specific for each target) (GR (h)): 1%; perc_inhibition (% inhibition of the binding of a ligand specific for each target) (BZD (central)): 0%; perc_inhibition: % inhibition of control enzyme activity, Lck kinase (h) (Lck kinase (h)): 4%; perc_inhibition (% inhibition of the binding of a ligand specific for each target) (CB2 (h)): -11%; perc_inhibition: % inhibition of control enzyme activity, acetylcholinesterase (h) (acetylcholinesterase (h)): 11%; perc_inhibition (% inhibition of the binding of a ligand specific for each target) (CB1 (h)): -8%; perc_inhibition (% inhibition of the binding of a ligand specific for each target) (D1 (h)): -18%; perc_inhibition_rest_state (NaV1.5; NaV1.5, rest state): 9.0%; IC50 (NaV1.5; [7]): > 30 µM; perc_inhibition_use_dep_block (NaV1.5; NaV1.5, use dependent block): 8.0%; IC50 (NaV1.5; [8]): > 30 µM; remaining activity at 10 µM (CaMKI(h); batch_name=ASAP-0015381-001): 103%; remaining activity at 10 µM (c-RAF(h); batch_name=ASAP-0015381-001): 103%
